Experiment: physchem
Procedure: "LogP" = Verteilungskoeffizient in einem Zweiphasengemisch aus n-Octanol und Wasser.
Die log P-Daten wurden in Übereinstimmung mit der EEC Direktive 79/831, Anlage V.A8 (Annex V.A8) mittels HPLC (High Performance Liquid Chromatography) auf einer Umkehrphase-Säule (reversed-phase column) (C18) mit folgenden Methoden bestimmt: Temperatur: 40°C; Mobile Phase: 0,1 % bzw. 0,06 %ige wässrige Ameisensäure oder 0,1 % wässriger Phosphorsäure und Acetonitril; linearer Gradient von 10% Acetonitril bis 90% bzw. 95 % Acetonitril. Die Kalibrierung wurde ausgeführt mit Hilfe unverzweigter Alkan-2-one (bestehend aus 3 bis 13 bzw.16 Kohlenstoff-Atomen) mit bekannten IogP-Werten (Bestimmung der IogP-Werte über die Retentionszeiten mittels linearer Interpolation zwischen zwei nachfolgenden Alkanonen).

Structure (SMILES)	chromatographic logP
COc1ccccc1C=NOCC#Cc1ccc(F)c(SC)c1 [Beispiel 1.053]	4.51
CCSc1cccc(C#CCON=Cc2ccccc2OC)c1 [Beispiel 1.056]	4.9
COc1cc(F)ccc1C=NOCC#Cc1ccc(F)c(SC)c1 [Beispiel 1.066]	4.58
CCSc1cccc(C#CCON=Cc2ccc(F)cc2OC)c1 [Beispiel 1.069]	4.9
Cc1ccc(C#CCON=Cc2ccccc2Oc2ccc(Cl)cc2)cc1[S+](C)[O-] (stereo not drawn) [Beispiel 1.379]	4.11
COc1ccccc1C=NOCC#Cc1cccc([S+]([O-])C(F)(F)F)c1 (stereo not drawn) [Beispiel 1.380]	3.88
COc1ccccc1C=NOCC#Cc1ccccc1SC [Beispiel 1.386]	4.23
COc1ccc(C=NOCC#Cc2cccc(CC#N)c2)c(OC)c1 [Beispiel 1.387]	3.22
COc1ccc(C=NOCC#Cc2cccc(SC)c2)c(OC)c1 [Beispiel 1.388]	4.4
COc1ccc(C=NOCC#Cc2cccc([S+](C)[O-])c2)c(OC)c1 (stereo not drawn) [Beispiel 1.389]	2.42
COc1cccc(OC)c1C=NOCC#Cc1cccc(SC)c1 [Beispiel 1.393]	3.77
COc1ccccc1C=NOCC#Cc1ccc(C#N)c(SC)c1 [Beispiel 1.394]	3.94
COc1cc(F)ccc1C=NOCC#Cc1ccc(C#N)c(SC)c1 [Beispiel 1.395]	3.97
COc1cccc(OC)c1C=NOCC#Cc1cccc([S+](C)[O-])c1 (stereo not drawn) [Beispiel 1.396]	2.04
COc1cccc(OC)c1C=NOCC#Cc1cccc(CC#N)c1 [Beispiel 1.397]	2.86
CCSc1cc(C#CCON=Cc2ccccc2OC)ccc1OC [Beispiel 1.398]	4.45
CCSc1cc(C#CCON=Cc2ccc(F)cc2OC)ccc1OC [Beispiel 1.399]	4.53
CC[S+]([O-])c1cc(C#CCON=Cc2ccccc2OC)ccc1OC (stereo not drawn) [Beispiel 1.401]	3.07
CC[S+]([O-])c1cc(C#CCON=Cc2ccc(F)cc2OC)ccc1OC (stereo not drawn) [Beispiel 1.402]	3.19
CCC(=NOCC#Cc1cccc(OC)c1)c1ccccc1 [Beispiel 1.403]	4.45
CCC(=NOCC#Cc1cccc(C(F)(F)F)c1)c1ccccc1 [Beispiel 1.404]	5.13
CCC(=NOCC#Cc1cccc(SC)c1)c1ccccc1 [Beispiel 1.405]	4.84
CCC(=NOCC#Cc1cccc(CC#N)c1)c1ccccc1 [Beispiel 1.406]	3.87

Structure (SMILES)	chromatographic logP
CCC(=NOCC#Cc1cccc(OC)c1)c1ccc(C)cc1 [Beispiel 1.407]	4.92
CCC(=NOCC#Cc1cccc(C(F)(F)F)c1)c1ccc(C)cc1 [Beispiel 1.408]	5.53
CCC(=NOCC#Cc1cccc(SC)c1)c1ccc(C)cc1 [Beispiel 1.409]	5.36
CCC(=NOCC#Cc1cccc(CC#N)c1)c1ccc(C)cc1 [Beispiel 1.410]	4.18
CCC(=NOCC#Cc1cccc(OC)c1)c1ccc(F)cc1 [Beispiel 1.411]	4.54
CCC(=NOCC#Cc1cccc(C(F)(F)F)c1)c1ccc(F)cc1 [Beispiel 1.412]	5.13
CCC(=NOCC#Cc1cccc(SC)c1)c1ccc(F)cc1 [Beispiel 1.413]	4.97
CCC(=NOCC#Cc1cccc(CC#N)c1)c1ccc(F)cc1 [Beispiel 1.414]	3.88
CCC(=NOCC#Cc1cccc(OC)c1)c1ccccc1F [Beispiel 1.415]	4.42
CCC(=NOCC#Cc1cccc(C(F)(F)F)c1)c1ccccc1F [Beispiel 1.416]	5.03
CCC(=NOCC#Cc1cccc(SC)c1)c1ccccc1F [Beispiel 1.417]	4.84
CCC(=NOCC#Cc1cccc(CC#N)c1)c1ccccc1F [Beispiel 1.418]	3.72
CCC(=NOCC#Cc1cccc(CC#N)c1)c1cccc(Cl)c1Cl [Beispiel 1.419]	4.84
CCC(=NOCC#Cc1cccc([S+](C)[O-])c1)c1ccccc1 (stereo not drawn) [Beispiel 1.420]	2.93
CCC(=NOCC#Cc1cccc([S+](C)[O-])c1)c1ccc(C)cc1 (stereo not drawn) [Beispiel 1.421]	3.46
CCC(=NOCC#Cc1cccc([S+](C)[O-])c1)c1cccc(Cl)c1Cl (stereo not drawn) [Beispiel 1.422]	4.12
CCC(=NOCC#Cc1cccc([S+](C)[O-])c1)c1ccc(F)cc1 (stereo not drawn) [Beispiel 1.423]	3.14
CCSc1cc(C#CCON=Cc2ccccc2OC)ccc1C [Beispiel 1.424]	5.33
CCSc1cc(C#CCON=Cc2ccc(F)cc2OC)ccc1C [Beispiel 1.425]	5.38
CC[S+]([O-])c1cc(C#CCON=Cc2ccccc2OC)ccc1C (stereo not drawn) [Beispiel 1.426]	3.05
CC[S+]([O-])c1cc(C#CCON=Cc2ccc(F)cc2OC)ccc1C (stereo not drawn) [Beispiel 1.427]	3.15
COc1ccccc1C=NOCC#Cc1cccc(OC(F)(F)F)c1 [Beispiel 1.428]	4.72
COc1cc(F)ccc1C=NOCC#Cc1cccc(OC(F)(F)F)c1 [Beispiel 1.429]	4.77

Structure (SMILES)	chromatographic logP
COc1ccccc1C=NOCC#Cc1cccc(SC(C)C)c1 [Beispiel 1.430]	5.24
COc1cc(F)ccc1C=NOCC#Cc1cccc(SC(C)C)c1 [Beispiel 1.431]	5.26
C=CCSc1cccc(C#CCON=Cc2ccc(F)cc2OC)c1 [Beispiel 1.432]	5.24
COc1cc(F)ccc1C=NOCC#Cc1ccc(OC)c(SC)c1 [Beispiel 1.433]	4.32
COc1ccccc1C=NOCC#Cc1ccc(OC)c(SC)c1 [Beispiel 1.434]	4.24
COc1cc(F)ccc1C=NOCC#Cc1ccc(F)c(SC)c1F [Beispiel 1.435]	4.54
COc1ccccc1C=NOCC#Cc1ccc(F)c(SC)c1F [Beispiel 1.436]	4.48
COc1ccccc1C=NOCC#Cc1ccc(F)c([S+](C)[O-])c1F (stereo not drawn) [Beispiel 1.437]	2.66
COc1cc(F)ccc1C=NOCC#Cc1ccc(F)c([S+](C)[O-])c1F (stereo not drawn) [Beispiel 1.438]	2.75
COc1ccccc1C=NOCC#Cc1cccc(F)c1F [Beispiel 1.439]	4.29
COc1ccccc1C=NOCC#Cc1cc(C)c(F)c(SC)c1 [Beispiel 1.440]	5.01
COc1cc(F)ccc1C=NOCC#Cc1cc(C)c(F)c(SC)c1 [Beispiel 1.441]	5.05
COc1cc(F)ccc1C=NOCC#Cc1ccccc1SC [Beispiel 1.442]	4.29
COc1cc(F)ccc1C=NOCC#Cc1cc(C)c(F)c([S+](C)[O-])c1 (stereo not drawn) [Beispiel 1.443]	3.43
COc1ccccc1C=NOCC#Cc1cc(C)c(F)c([S+](C)[O-])c1 (stereo not drawn) [Beispiel 1.444]	3.32
COc1ccccc1C=NOCC#Cc1ccccc1[S+](C)[O-] (stereo not drawn) [Beispiel 1.445]	2.73
COc1cc(F)ccc1C=NOCC#Cc1ccccc1[S+](C)[O-] (stereo not drawn) [Beispiel 1.446]	2.86
COc1cc(F)ccc1C=NOCC#Cc1ccc(F)c(F)c1SC [Beispiel 1.447]	4.58
COc1cc(F)ccc1C=NOCC#Cc1ccc(F)c(F)c1[S+](C)[O-] (stereo not drawn) [Beispiel 1.448]	2.78
COc1cc(F)ccc1C=NOCC#Cc1cc(SC)c(F)c(SC)c1 [Beispiel 1.449]	5.17
COc1ccccc1C=NOCC#Cc1cc(SC)c(F)c(SC)c1 [Beispiel 1.450]	5.05

Continued, values first:

chromatographic logP	Structure (SMILES)
3.79	CSc1cccc(C#CC(C)ON=Cc2cccc(C)n2)c1 (stereo not drawn) [Beispiel 3.085]
4.18	CSc1cccc(C#CCON=C(C)c2cccc(C)n2)c1 [Beispiel 3.091]
1.75	CC(=NOCC#Cc1cccc([S+](C)[O-])c1)c1cccc(C)n1 (stereo not drawn) [Beispiel 3.092]
2.4	CC(=NOCC#Cc1cccc(S(C)(=O)=O)c1)c1cccc(C)n1 [Beispiel 3.093]
2.96	CC(=NOCC#Cc1cccc(CC#N)c1)c1cccc(C)n1 [Beispiel 3.094]
4.77	CCC(=NOCC#Cc1cccc(SC)c1)c1cccc(C)n1 [Beispiel 3.095]
2.21	CCC(=NOCC#Cc1cccc([S+](C)[O-])c1)c1cccc(C)n1 (stereo not drawn) [Beispiel 3.096]
2.93	CCC(=NOCC#Cc1cccc(S(C)(=O)=O)c1)c1cccc(C)n1 [Beispiel 3.097]
3.5	CCC(=NOCC#Cc1cccc(CC#N)c1)c1cccc(C)n1 [Beispiel 3.098]
4.92	CSc1cccc(C#CCON=Cc2cc(C(F)(F)F)c(Cl)cn2)c1 [Beispiel 3.120]
2.96	C[S+]([O-])c1cccc(C#CCON=Cc2cc(C(F)(F)F)c(Cl)cn2)c1 (stereo not drawn) [Beispiel 3.121]
4.76	CCOc1nc(C=NOCC#Cc2cccc(SC)c2)ccc1F [Beispiel 3.125]
2.78	CCOc1nc(C=NOCC#Cc2cccc([S+](C)[O-])c2)ccc1F (stereo not drawn) [Beispiel 3.126]
4.18	CSc1cccc(C#CCON=Cc2nccnc2SC)c1 [Beispiel 4.078]
2.99	CSc1nccnc1C=NOCC#Cc1cccc(CC#N)c1 [Beispiel 4.080]
3.34	COc1nccnc1C=NOCC#Cc1cccc(SC)c1 [Beispiel 4.084]
2.4	COc1nccnc1C=NOCC#Cc1cccc(CC#N)c1 [Beispiel 4.086]
1.57	COc1nccnc1C=NOCC#Cc1cccc([S+](C)[O-])c1 (stereo not drawn) [Beispiel 4.090]
1.99	COc1nccnc1C=NOCC#Cc1cccc(S(C)(=O)=O)c1 [Beispiel 4.091]
4.03	COc1ncc(Cl)nc1C=NOCC#Cc1cccc(SC)c1 [Beispiel 4.092]
3.09	COc1ncc(Cl)nc1C=NOCC#Cc1cccc(CC#N)c1 [Beispiel 4.094]
2.18	COc1ncc(Cl)nc1C=NOCC#Cc1cccc([S+](C)[O-])c1 (stereo not drawn) [Beispiel 4.098]
4.03	COc1nc(Cl)cnc1C=NOCC#Cc1cccc(SC)c1 [Beispiel 4.100]
